From ChEMBL document CHEMBL1153662, “Synthesis and antiviral activity of alkylphosphonic acid derivatives of oxetanocin-A” (Bioorg Med Chem Lett, 1994)

How the values were obtained:
Format in all cases: functional, cell-based
MT4 = experiment: In vitro […] against HIV-1 in MT-4 cells by indirect an immunofluorescence assay at concentration up to 100 ug/mL; devoid of activity; details: Homo sapiens
Vero [1] = experiment: In vitro antiviral activity against HSV-1 in vero cells by a plaque reduction assay at concentration up to 10 ug/mL; devoid of activity; details: Chlorocebus sabaeus
Vero [2] = experiment: In vitro antiviral activity against HSV-2 in vero cells by a plaque reduction assay at concentration up to 10 ug/mL; devoid of activity; details: Chlorocebus sabaeus

Measured: Activity

Nc1ncnc2c1ncn2C1OC(CCCP(=O)(O)O)C1CO (configuration not stated)
devoid of activity: all assays above

Nc1ncnc2c1ncn2C1OC(C(O)P(=O)(O)O)C1CO (configuration not stated)
devoid of activity: all assays above

Nc1ncnc2c1ncn2C1OC(/C=C/P(=O)(O)O)C1CO (configuration not stated)
devoid of activity: all assays above

Nc1ncnc2c1ncn2C1OC(CCP(=O)(O)O)C1CO (configuration not stated)
devoid of activity: all assays above
